# Test results from ChEMBL document CHEMBL5154740, “Novel Aurora A and Protein Kinase C (α, β1, β2, and θ) Multitarget Inhibitors: Impact of Selenium Atoms on the Potency and Selectivity” (J Med Chem, 2022).
# Tests used:
# [1] = molecular target: Receptor tyrosine-protein kinase erbB-2 (Homo sapiens) (UniProt P04626); experiment: Inhibition of ERBB2 (unknown origin) at 50 nM by Z'LYTE screening method relative to control
# [2] = molecular target: Dual specificity mitogen-activated protein kinase kinase 1 (Homo sapiens) (UniProt Q02750); experiment: Inhibition of MAP2K1 (unknown origin) at 50 nM by Z'LYTE screening method relative to control
# [3] = molecular target: Platelet-derived growth factor receptor alpha (Homo sapiens) (UniProt P16234); experiment: Inhibition of PDGFRalpha (unknown origin) at 50 nM by Z'LYTE screening method relative to control
# [4] = molecular target: Proto-oncogene tyrosine-protein kinase Src (Homo sapiens) (UniProt P12931); experiment: Inhibition of SRC (unknown origin) at 50 nM by Z'LYTE screening method relative to control
# [5] = molecular target: Hepatocyte growth factor receptor (Homo sapiens) (UniProt P08581); experiment: Inhibition of cMet (unknown origin) at 50 nM by Z'LYTE screening method relative to control
# [6] = molecular target: Tyrosine-protein kinase JAK2 (Homo sapiens) (UniProt O60674); experiment: Inhibition of JAK2 (unknown origin) at 50 nM by Z'LYTE screening method relative to control
# [7] = molecular target: PI3-kinase p110-alpha/p85-alpha (Homo sapiens) (UniProt P27986+P42336); experiment: Inhibition of p110alpha/p85alpha (unknown origin) at 50 nM by Z'LYTE screening method relative to control; assay type: protein-complex assay
# [8] = molecular target: Fibroblast growth factor receptor 1 (Homo sapiens) (UniProt P11362); experiment: Inhibition of FGFR1 (unknown origin) at 50 nM by Z'LYTE screening method relative to control
# [9] = molecular target: DNA-dependent protein kinase catalytic subunit (Homo sapiens) (UniProt P78527); experiment: Inhibition of DNA-PK (unknown origin) at 50 nM by Z'LYTE screening method relative to control
# [10] = test system: 4T1; experiment: Cytotoxicity against mouse 4T1 cells assessed as reduction in cell viability incubated for 96 hrs by MTT assay; assay type: functional, cell-based; conditions: 4T1, 96 h
# [11] = molecular target: Cell division control protein 42 homolog (Homo sapiens) (UniProt P60953); experiment: Inhibition of CDC42 delta (unknown origin) at 50 nM by Z'LYTE screening method relative to control
# [12] = test system: MDA-MB-231; experiment: Cytotoxicity against human MDA-MB-231/M cells assessed as reduction in cell viability incubated for 96 hrs by MTT assay; assay type: functional, cell-based; conditions: MDA-MB-231, 96 h
# [13] = molecular target: Glycogen synthase kinase-3 beta (Homo sapiens) (UniProt P49841); experiment: Inhibition of GSK3b (unknown origin) at 50 nM by Z'LYTE screening method relative to control
# [14] = molecular target: Tyrosine-protein kinase SYK (Homo sapiens) (UniProt P43405); experiment: Inhibition of SYK (unknown origin) at 50 nM by Z'LYTE screening method relative to control
# [15] = molecular target: Cyclin-dependent kinase 5/CDK5 activator 1 (Homo sapiens) (UniProt Q00535+Q15078); experiment: Inhibition of CDK5/p35 (unknown origin) at 50 nM by Z'LYTE screening method relative to control; assay type: protein-complex assay
# [16] = molecular target: Aurora kinase B (Homo sapiens) (UniProt Q96GD4); experiment: Inhibition of AURB (unknown origin) at 50 nM by Z'LYTE screening method relative to control
# [17] = molecular target: T1, Aurora kinase A (Homo sapiens) (UniProt O14965); experiment: Inhibition of AURA (unknown origin) at 50 nM by Z'LYTE screening method relative to control
# T1 sequence (whole entry): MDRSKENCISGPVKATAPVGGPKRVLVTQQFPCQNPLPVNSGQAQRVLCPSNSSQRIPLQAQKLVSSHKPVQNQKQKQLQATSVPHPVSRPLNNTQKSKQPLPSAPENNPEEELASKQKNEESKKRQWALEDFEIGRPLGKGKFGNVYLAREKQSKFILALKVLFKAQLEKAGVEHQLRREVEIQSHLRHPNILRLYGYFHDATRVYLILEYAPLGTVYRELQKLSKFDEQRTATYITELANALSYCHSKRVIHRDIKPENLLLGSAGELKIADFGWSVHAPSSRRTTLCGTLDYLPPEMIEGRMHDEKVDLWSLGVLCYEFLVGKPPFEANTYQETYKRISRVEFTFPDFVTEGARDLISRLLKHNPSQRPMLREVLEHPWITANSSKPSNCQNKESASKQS
# [18] = molecular target: Ribosomal protein S6 kinase beta-1 (Homo sapiens) (UniProt P23443); experiment: Inhibition of p70S6K (unknown origin) at 50 nM by Z'LYTE screening method relative to control
# [19] = molecular target: Protein kinase C theta type (Homo sapiens, UniProt Q04759); experiment: Inhibition of PKCtheta (unknown origin) at 50 nM by Z'LYTE screening method relative to control
# [20] = species on record: Homo sapiens; experiment: Inhibition of CDK1/Cyclin B (unknown origin) at 50 nM by Z'LYTE screening method relative to control
# [21] = molecular target: Ribosomal protein S6 kinase alpha-1 (Homo sapiens) (UniProt Q15418); experiment: Inhibition of RPS6KA1 (unknown origin) at 50 nM by Z'LYTE screening method relative to control
# [22] = molecular target: Protein kinase C eta type (Homo sapiens, UniProt P24723); experiment: Inhibition of PKCeta (unknown origin) at 50 nM by Z'LYTE screening method relative to control
# [23] = molecular target: CDK1/Cyclin A (Homo sapiens) (UniProt P06493+P20248); experiment: Inhibition of CDK1/CyclinA (unknown origin) at 50 nM by Z'LYTE screening method relative to control; assay type: protein-complex assay
# [24] = molecular target: Serine/threonine-protein kinase PAK 1 (Homo sapiens) (UniProt Q13153); experiment: Inhibition of PAK1 (unknown origin) at 50 nM by Z'LYTE screening method relative to control
# [25] = molecular target: Focal adhesion kinase 1 (Homo sapiens) (UniProt Q05397); experiment: Inhibition of FAK (unknown origin) at 50 nM by Z'LYTE screening method relative to control
# Ribosomal protein S6 kinase beta-1 (Homo sapiens), sequence (P23443 whole entry, looked up): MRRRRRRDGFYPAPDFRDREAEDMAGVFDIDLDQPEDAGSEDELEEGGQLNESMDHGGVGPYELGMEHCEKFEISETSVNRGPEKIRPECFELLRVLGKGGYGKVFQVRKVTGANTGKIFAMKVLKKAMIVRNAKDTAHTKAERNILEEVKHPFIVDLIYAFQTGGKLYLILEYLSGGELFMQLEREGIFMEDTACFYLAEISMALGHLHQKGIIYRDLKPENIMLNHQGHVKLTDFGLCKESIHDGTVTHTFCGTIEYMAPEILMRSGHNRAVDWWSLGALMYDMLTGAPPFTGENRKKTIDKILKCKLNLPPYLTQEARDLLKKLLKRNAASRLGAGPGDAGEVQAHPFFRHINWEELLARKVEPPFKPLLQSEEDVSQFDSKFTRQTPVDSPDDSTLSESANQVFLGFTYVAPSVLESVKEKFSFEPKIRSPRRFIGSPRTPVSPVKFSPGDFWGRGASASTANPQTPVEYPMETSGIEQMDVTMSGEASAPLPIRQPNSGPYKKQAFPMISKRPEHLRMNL
# Protein kinase C eta type, sequence (P24723 whole entry): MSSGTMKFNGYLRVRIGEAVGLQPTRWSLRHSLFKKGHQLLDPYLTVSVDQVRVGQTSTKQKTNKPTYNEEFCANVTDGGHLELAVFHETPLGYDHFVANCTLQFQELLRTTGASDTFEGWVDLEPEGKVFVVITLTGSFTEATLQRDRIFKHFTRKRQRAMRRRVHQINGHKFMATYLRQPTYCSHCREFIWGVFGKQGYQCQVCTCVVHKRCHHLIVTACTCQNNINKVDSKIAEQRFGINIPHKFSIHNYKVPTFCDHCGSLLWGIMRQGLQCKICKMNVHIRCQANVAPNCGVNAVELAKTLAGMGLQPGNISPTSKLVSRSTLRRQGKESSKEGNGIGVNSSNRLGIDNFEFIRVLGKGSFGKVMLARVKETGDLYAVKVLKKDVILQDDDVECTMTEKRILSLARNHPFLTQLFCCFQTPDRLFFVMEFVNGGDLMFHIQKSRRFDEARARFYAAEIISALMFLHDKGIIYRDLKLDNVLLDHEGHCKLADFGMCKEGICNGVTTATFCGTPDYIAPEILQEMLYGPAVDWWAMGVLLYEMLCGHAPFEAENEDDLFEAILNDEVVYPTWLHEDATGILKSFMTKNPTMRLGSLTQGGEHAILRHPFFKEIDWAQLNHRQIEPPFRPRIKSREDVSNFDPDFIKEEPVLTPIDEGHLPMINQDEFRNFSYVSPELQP
# Hepatocyte growth factor receptor (Homo sapiens), sequence (P08581 whole entry): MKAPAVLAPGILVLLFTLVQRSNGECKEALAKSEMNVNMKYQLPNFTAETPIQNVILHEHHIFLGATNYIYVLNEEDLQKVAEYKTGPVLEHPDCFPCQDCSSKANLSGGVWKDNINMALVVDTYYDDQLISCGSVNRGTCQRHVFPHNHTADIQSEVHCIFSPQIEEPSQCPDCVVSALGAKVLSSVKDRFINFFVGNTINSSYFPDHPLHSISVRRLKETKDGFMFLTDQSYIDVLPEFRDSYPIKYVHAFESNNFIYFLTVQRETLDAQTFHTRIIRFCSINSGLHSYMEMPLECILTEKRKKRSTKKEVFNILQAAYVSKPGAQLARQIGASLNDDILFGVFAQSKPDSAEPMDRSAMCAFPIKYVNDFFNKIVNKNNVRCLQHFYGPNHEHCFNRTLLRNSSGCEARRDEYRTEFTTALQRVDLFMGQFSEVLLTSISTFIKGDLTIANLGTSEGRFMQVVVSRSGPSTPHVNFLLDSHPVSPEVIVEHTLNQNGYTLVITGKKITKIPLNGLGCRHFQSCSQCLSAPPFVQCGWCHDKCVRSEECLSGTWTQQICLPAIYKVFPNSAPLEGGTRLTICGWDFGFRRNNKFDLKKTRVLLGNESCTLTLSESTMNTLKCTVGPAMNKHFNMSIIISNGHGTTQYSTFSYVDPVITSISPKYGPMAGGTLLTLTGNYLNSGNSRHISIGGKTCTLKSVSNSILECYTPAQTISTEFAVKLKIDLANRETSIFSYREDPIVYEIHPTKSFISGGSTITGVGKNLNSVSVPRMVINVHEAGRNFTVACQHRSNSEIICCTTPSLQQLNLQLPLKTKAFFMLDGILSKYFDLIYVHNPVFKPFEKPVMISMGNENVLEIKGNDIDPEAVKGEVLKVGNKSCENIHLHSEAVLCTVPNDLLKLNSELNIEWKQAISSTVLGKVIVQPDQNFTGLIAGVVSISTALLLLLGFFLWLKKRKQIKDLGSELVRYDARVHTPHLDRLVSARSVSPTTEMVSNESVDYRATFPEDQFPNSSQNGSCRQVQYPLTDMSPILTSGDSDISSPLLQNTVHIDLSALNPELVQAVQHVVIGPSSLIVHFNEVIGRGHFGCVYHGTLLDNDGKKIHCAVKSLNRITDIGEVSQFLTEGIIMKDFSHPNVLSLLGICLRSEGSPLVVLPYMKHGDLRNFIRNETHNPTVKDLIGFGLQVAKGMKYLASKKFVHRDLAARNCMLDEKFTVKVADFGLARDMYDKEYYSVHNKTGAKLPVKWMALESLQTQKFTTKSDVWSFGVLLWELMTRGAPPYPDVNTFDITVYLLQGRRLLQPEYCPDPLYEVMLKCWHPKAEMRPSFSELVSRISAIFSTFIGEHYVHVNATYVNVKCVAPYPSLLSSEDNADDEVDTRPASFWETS
# Ribosomal protein S6 kinase alpha-1 (Homo sapiens), sequence (Q15418 whole entry): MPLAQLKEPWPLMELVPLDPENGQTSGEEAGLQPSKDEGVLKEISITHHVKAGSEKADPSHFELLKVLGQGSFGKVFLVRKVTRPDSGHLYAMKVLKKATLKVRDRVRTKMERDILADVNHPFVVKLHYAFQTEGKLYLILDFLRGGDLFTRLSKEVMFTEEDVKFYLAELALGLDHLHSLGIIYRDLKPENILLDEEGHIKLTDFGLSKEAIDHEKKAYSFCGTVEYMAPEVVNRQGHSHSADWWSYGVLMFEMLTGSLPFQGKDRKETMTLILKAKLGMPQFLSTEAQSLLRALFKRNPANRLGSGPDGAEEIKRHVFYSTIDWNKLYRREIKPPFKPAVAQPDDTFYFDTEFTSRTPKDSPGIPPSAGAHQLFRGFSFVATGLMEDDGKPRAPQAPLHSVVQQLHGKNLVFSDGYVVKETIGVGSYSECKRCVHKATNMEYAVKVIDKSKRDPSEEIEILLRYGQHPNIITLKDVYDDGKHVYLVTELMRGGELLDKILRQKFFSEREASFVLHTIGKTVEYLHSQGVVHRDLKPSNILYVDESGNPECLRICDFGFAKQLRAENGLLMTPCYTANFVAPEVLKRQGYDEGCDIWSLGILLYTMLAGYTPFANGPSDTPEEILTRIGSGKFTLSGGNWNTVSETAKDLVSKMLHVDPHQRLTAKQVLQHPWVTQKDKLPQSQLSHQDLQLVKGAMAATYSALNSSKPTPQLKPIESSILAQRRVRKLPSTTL
# Fibroblast growth factor receptor 1 (Homo sapiens), sequence (P11362 22-822 limits assumed): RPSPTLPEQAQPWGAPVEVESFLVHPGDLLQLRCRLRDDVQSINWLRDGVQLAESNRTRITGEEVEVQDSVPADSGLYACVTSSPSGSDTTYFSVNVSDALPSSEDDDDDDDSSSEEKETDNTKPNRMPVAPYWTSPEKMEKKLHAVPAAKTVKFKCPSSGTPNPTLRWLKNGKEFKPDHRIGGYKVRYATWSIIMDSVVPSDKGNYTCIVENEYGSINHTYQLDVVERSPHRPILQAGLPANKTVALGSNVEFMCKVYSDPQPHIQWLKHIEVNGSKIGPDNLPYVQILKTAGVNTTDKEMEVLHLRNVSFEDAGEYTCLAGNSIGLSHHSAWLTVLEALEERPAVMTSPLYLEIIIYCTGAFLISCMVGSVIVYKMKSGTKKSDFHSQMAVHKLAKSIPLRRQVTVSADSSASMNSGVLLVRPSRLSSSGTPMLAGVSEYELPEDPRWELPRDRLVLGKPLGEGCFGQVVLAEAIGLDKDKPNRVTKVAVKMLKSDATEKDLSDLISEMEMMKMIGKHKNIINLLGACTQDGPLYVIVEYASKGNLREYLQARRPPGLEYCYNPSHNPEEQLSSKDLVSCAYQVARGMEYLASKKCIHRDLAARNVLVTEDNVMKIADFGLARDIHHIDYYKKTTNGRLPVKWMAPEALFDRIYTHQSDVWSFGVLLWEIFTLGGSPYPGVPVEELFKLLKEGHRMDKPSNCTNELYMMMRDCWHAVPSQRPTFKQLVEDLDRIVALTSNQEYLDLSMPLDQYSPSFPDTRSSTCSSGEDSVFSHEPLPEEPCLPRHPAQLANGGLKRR
# Proto-oncogene tyrosine-protein kinase Src (Homo sapiens), sequence (P12931 2-536 limits assumed): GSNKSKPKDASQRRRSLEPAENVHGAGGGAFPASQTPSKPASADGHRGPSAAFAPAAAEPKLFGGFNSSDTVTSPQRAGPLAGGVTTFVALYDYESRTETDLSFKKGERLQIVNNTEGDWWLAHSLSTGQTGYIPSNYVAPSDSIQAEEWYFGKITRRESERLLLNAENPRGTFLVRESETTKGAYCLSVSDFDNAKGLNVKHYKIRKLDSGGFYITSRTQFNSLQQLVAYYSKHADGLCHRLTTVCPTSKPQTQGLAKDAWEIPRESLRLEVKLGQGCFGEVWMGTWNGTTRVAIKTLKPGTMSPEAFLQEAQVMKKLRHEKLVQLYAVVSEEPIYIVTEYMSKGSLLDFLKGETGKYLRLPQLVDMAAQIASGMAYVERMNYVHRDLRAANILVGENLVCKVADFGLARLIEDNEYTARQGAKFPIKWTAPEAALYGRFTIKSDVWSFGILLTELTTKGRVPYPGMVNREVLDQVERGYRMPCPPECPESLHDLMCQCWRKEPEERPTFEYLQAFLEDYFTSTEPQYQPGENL
# Cell division control protein 42 homolog (Homo sapiens), sequence (P60953 whole entry, looked up): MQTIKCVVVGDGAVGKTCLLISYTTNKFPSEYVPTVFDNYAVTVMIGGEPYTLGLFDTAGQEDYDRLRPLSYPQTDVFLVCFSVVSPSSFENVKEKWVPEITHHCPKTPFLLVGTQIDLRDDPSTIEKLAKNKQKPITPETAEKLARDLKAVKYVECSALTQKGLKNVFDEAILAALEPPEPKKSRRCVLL
inhibition [1] [%],inhibition [2] [%],inhibition [4] [%],inhibition [5] [%],inhibition [7] [%],inhibition [8] [%],inhibition [9] [%],inhibition [11] [%],inhibition [14] [%],inhibition [16] [%],inhibition [17] [%],inhibition [18] [%],inhibition [19] [%],inhibition [20] [%],inhibition [21] [%],inhibition [22] [%],inhibition [23] [%],inhibition [24] [%],SMILES,IC50 [10] [µM],IC50 [12] [µM],other results
0,2,2,1,0,0,0,0,3,4,4,2,15,0,0,1,1,1,O=c1c2ccccc2[se]n1-c1nc(N[C@@H]2C[C@H]3CC[C@@H]2C3)c2nc[nH]c2n1,31.8,32.4,inhibition [25]: 0%
1,3,0,14,0,0,0,0,4,6,9,0,83,0,0,11,3,14,CCN(CC)CCCC(C)Nc1nc(-n2[se]c3ccccc3c2=O)nc2[nH]cnc12 (centres undefined),15.2,16.8,inhibition [25]: 4%
0,5,0,1,0,0,0,0,1,6,3,2,16,1,0,1,2,1,C[C@@H]1[C@H]2C[C@@H](C[C@H]1Nc1nc(-n3[se]c4ccccc4c3=O)nc3[nH]cnc13)C2(C)C,33.6,47.7,inhibition [25]: 0%
0,0,1,0,0,0,0,0,0,1,6,0,12,0,0,0,2,0,O=c1c2ccccc2[se]n1-c1nc(Nc2ccccc2)c2nc[nH]c2n1,15.2,32.2,inhibition [25]: 0%

# More lines, now with the values behind:
SMILES,inhibition [1] [%],inhibition [2] [%],inhibition [4] [%],inhibition [5] [%],inhibition [7] [%],inhibition [8] [%],inhibition [9] [%],inhibition [11] [%],inhibition [14] [%],inhibition [16] [%],inhibition [17] [%],inhibition [18] [%],inhibition [19] [%],inhibition [20] [%],inhibition [21] [%],inhibition [22] [%],inhibition [23] [%],inhibition [24] [%],IC50 [10] [µM],IC50 [12] [µM],other results
O=c1c2ccccc2[se]n1-c1nc(N[C@H]2CC[Se]C2)c2nc[nH]c2n1,0,10,0,0,0,0,0,0,0,0,87,3,98,0,5,6,0,0,0.8,1.2,inhibition [3]: 1%; inhibition [6]: 18%; inhibition [13]: 29%; inhibition [15]: 1%; inhibition [25]: 0%
CCCNc1nc(-n2[se]c3ccccc3c2=O)nc2[nH]cnc12,0,2,2,1,0,0,0,1,2,2,4,0,25,1,0,0,2,1,11.3,23.2,inhibition [25]: 0%
O=c1c2ccccc2[se]n1-c1nc(N[C@H]2CCOC2)c2nc[nH]c2n1,0,2,3,0,0,0,0,0,2,0,71,6,85,1,5,3,1,0,1.8,2.3,inhibition [25]: 0%
CCN(CC)CCCC(C)Nc1nc(N2Cc3ccccc3C2=O)nc2[nH]cnc12 (centres undefined),0,5,0,2,0,0,0,0,2,5,3,1,12,1,0,2,1,2,13.3,22.1,inhibition [25]: 0%
O=C1c2ccccc2CN1c1nc(NC2CCCC2)c2nc[nH]c2n1,0,1,0,0,0,0,0,0,1,1,1,1,7,0,1,4,0,0,16.7,24.7,inhibition [25]: 0%
O=C1c2ccccc2CN1c1nc(N[C@H]2CC[Se]C2)c2nc[nH]c2n1,1,3,0,0,0,0,0,0,1,9,9,2,14,0,0,3,1,0,27.2,26.1,inhibition [25]: 0%
